Experimental data taken from patent US10323022B2, “Pyrrolidinyl urea, pyrrolidinyl thiourea and pyrrolidinyl guanidine compounds as TrkA kinase inhibitors” (Array BioPharma Inc., priority 2011, dated 2019).
Structures can show the parent of a compound that is named as a salt.

Molecular target: TrkA (Homo sapiens (Human), UniProt P04629)
Experiment: TrkA Omnia Assay
Type: biochemical
Conditions: averaged IC50; 20 nM enzyme, 500 μM ATP, 10 μM peptide substrate
Procedure, shortened: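 Continuous fluorescent kinase read-out (ex 360 nm, em 485 nm) over 70 min, with initial rates fitted to 4- or 5-parameter logistic curves for IC50. Final conditions: 500 μM ATP, 10 μM Omnia Tyr Peptide #4, 20 nM TrkA, MOPS pH 7.5 buffer with MgCl2 and Triton X-100; enzyme and compound preincubated 10 min at ambient temperature.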

TrkA, sequence (P04629 33-796): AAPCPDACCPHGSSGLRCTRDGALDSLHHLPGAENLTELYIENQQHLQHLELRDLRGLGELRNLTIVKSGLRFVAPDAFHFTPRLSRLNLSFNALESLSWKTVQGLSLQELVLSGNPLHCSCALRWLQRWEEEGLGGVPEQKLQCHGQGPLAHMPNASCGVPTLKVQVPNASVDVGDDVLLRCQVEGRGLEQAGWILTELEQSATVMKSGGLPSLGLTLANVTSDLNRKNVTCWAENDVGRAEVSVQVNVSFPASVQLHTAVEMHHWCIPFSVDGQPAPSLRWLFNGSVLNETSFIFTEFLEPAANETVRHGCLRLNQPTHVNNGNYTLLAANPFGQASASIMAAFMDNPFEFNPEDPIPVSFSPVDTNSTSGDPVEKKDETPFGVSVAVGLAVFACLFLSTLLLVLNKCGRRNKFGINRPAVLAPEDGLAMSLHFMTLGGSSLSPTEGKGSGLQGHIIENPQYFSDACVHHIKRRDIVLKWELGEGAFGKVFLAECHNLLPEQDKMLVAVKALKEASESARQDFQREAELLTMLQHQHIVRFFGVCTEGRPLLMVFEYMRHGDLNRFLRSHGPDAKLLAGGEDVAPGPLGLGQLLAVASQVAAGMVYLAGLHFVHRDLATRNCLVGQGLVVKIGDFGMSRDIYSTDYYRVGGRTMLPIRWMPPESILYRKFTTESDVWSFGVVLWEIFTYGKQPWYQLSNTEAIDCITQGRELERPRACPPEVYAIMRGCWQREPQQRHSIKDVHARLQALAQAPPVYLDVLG

SMILES	IC50 [nM]
CCOc1nn(-c2ccccc2)c(NC(=O)N[C@@H]2CN(CCOC)C[C@H]2c2cc(F)cc(F)c2)c1CO [Example 464, 1-((3S,4R)-4-(3,5-difluorophenyl)-1-(2-methoxyethyl)pyrrolidin-3-yl)-3-(3-ethoxy-4-(hydroxymethyl)-1-phenyl-1H-pyrazol-5-yl)urea]	< 100
COCCN1C[C@@H](NC(=O)Nc2c(C)c(-c3cnn(C)c3)nn2-c2ccc(F)cc2)[C@H](c2ccc(F)c(F)c2)C1 [Example 312, 1-((3S,4R)-4-(3,4-difluorophenyl)-1-(2-methoxyethyl)pyrrolidin-3-yl)-3-(1-(4-fluorophenyl)-1′,4-dimethyl-1H,1′H-[3,4′-bipyrazol]-5-yl)urea]	< 100
COCCN1C[C@@H](NC(=O)Nc2c(C)c(-c3ccccc3)nn2C)[C@H](c2ccccc2)C1 [Example 54, 1-(1,4-dimethyl-3-phenyl-1H-pyrazol-5-yl)-3-((3S,4R)-1-(2-methoxy-ethyl)-4-phenylpyrrolidin-3-yl)urea]	1000 to 10000
COCCN1C[C@@H](NC(=O)Nc2c(Br)c(-c3ccccc3)nn2-c2ccccc2)[C@H](c2cc(F)cc(F)c2)C1 [Example 427, 1-(4-bromo-1,3-diphenyl-1H-pyrazol-5-yl)-3-((3S,4R)-4-(3,5-difluorophenyl)-1-(2-methoxyethyl)pyrrolidin-3-yl)urea]	< 100
COCCN1C[C@@H](NC(=O)Nc2c(Br)c(C3CCOCC3)nn2-c2ccccc2)[C@H](c2ccc(F)cc2)C1 [Example 576, 1-(4-bromo-1-phenyl-3-(tetrahydro-2H-pyran-4-yl)-1H-pyrazol-5-yl)-3-((3S,4R)-4-(4-fluorophenyl)-1-(2-methoxyethyl)pyrrolidin-3-yl)urea]	< 100
COCCN1C[C@@H](NC(=O)Nc2c(C)c(OC(=O)N3CCOCC3)nn2-c2ccccc2)[C@H](c2ccc(F)c(F)c2)C1 [Example 397, 5-(3-((3S,4R)-4-(3,4-difluorophenyl)-1-(2-methoxyethyl)pyrrolidin-3-yl)ureido)-4-methyl-1-phenyl-1H-pyrazol-3-yl morpholine-4-carboxylate]	< 100
CCn1cc(-c2nn(-c3ccccc3)c(NC(=O)N[C@@H]3CN(CCOC)C[C@H]3c3cccc(F)c3)c2C)cn1 [Example 530, 1-(1′-ethyl-4-methyl-1-phenyl-1H,1′H-[3,4′-bipyrazol]-5-yl)-3-((3S,4R)-4-(3-fluorophenyl)-1-(2-methoxyethyl)pyrrolidin-3-yl)urea]	< 100
COCCN1C[C@@H](NC(=O)Nc2c3c(nn2-c2ccc(F)cc2)CCC3)[C@H](c2ccccc2)C1 (relative stereo) [Example 23, 1-(2-(4-fluorophenyl)-2,4,5,6-tetrahydrocyclopenta[c]pyrazol-3-yl)-3-(trans-1-(2-methoxyethyl)-4-phenylpyrrolidin-3-yl)urea]	< 100
COCCN1C[C@@H](NC(=O)Nc2c(C)c(OCCN3C(=O)c4ccccc4C3=O)nn2-c2ccccc2)[C@H](c2ccc(F)c(F)c2)C1 [Example 387, 1-((3S,4R)-4-(3,4-difluorophenyl)-1-(2-methoxyethyl)pyrrolidin-3-yl)-3-(3-(2-(1,3-dioxoisoindolin-2-yl)ethoxy)-4-methyl-1-phenyl-1H-pyrazol-5-yl)urea]	< 100
COCCN1C[C@@H](NC(=O)Nc2c(C)c(-c3cnn(S(C)(=O)=O)c3)nn2-c2ccccc2)[C@H](c2ccc(F)c(F)c2)C1 [Example 502, 1-((3S,4R)-4-(3,4-difluorophenyl)-1-(2-methoxyethyl)pyrrolidin-3-yl)-3-(4-methyl-1′-(methylsulfonyl)-1-phenyl-1H, 1′H-[3,4′-bipyrazol]-5-yl)urea]	< 100
COCCN1C[C@@H](NC(=O)Nc2c3c(nn2-c2ccccc2)CCC3)[C@](O)(c2ccccc2)C1 [Example 180, 1-((3R,4S)-4-hydroxy-1-(2-methoxyethyl)-4-phenylpyrrolidin-3-yl)-3-(2-phenyl-2,4,5,6-tetrahydrocyclopenta[c]pyrazol-3-yl)urea]	1000 to 10000
COCCN1C[C@@H](NC(=O)Nc2c3c(nn2-c2ccccc2)CCC3)[C@H](c2nccs2)C1 (stereo in doubt) [Example 49, 1-(1-(2-methoxyethyl)-4-(thiazol-2-yl)pyrrolidin-3-yl)-3-(2-phenyl-2,4,5,6-tetrahydrocyclopenta[c]pyrazol-3-yl)urea]	1000 to 10000
COCCN1C[C@@H](NC(=O)Nc2cc(-c3cccnc3)nn2C)[C@H](c2cc(F)cc(F)c2)C1 [Example 57, 1-((3S,4R)-4-(3,5-difluorophenyl)-1-(2-methoxyethyl)pyrrolidin-3-yl)-3-(1-methyl-3-(pyridin-3-yl)-1H-pyrazol-5-yl)urea]	< 100
COCCN1C[C@@H](NC(=O)Nc2c(C)c(-c3cnn(C)n3)nn2-c2ccccc2)[C@H](c2cccc(F)c2)C1 [Example 384, 1-((3S,4R)-4-(3-fluorophenyl)-1-(2-methoxyethyl)pyrrolidin-3-yl)-3-(4-methyl-3-(2-methyl-2H-1,2,3-triazol-4-yl)-1-phenyl-1H-pyrazol-5-yl)urea]	< 100
COCCN1CC(c2ccccc2)[C@H](NC(=O)Nc2c(-c3ccccc3)nn3ccccc23)C1 (stereo partly shown) [Example 634]	< 100
COCCN1C[C@@H](NC(=O)Nc2c3c(nn2-c2ccccc2)CNC3)[C@H](c2ccccc2)C1 [Example 158, 1-((3S,4R)-1-(2-methoxyethyl)-4-phenylpyrrolidin-3-yl)-3-(2-phenyl-2,4,5,6-tetrahydropyrrolo[3,4-c]pyrazol-3-yl)urea dihydrochloride]	1000 to 10000

Further lines, results first:

IC50 [nM]	SMILES
< 100	COCCN1C[C@@H](NC(=O)Nc2c(C)c(-c3cnc(C)nc3)nn2-c2ccccc2)[C@H](c2ccc(F)c(F)c2)C1 [Example 511, 1-((3S,4R)-4-(3,4-difluorophenyl)-1-(2-methoxyethyl)pyrrolidin-3-yl)-3-(4-methyl-3-(2-methylpyrimidin-5-yl)-1-phenyl-1H-pyrazol-5-yl)urea]
< 100	COCCN1C[C@@H](NC(=O)Nc2c(C)c(C(C)(C)CO)nn2-c2ccccc2)[C@H](c2ccc(F)c(F)c2)C1 [Example 118, 1-((3S,4R)-4-(3,4-difluorophenyl)-1-(2-methoxyethyl)pyrrolidin-3-yl)-3-(3-(1-hydroxy-2-methylpropan-2-yl)-4-methyl-1-phenyl-1H-pyrazol-5-yl)urea]
< 100	COC[C@H](N1C[C@@H](NC(=O)Nc2c(C)c(OC[C@H](C)O)nn2-c2ccccc2)[C@H](c2ccc(F)c(F)c2)C1)C(F)(F)F [Example 277, 1-((3S,4R)-4-(3,4-difluorophenyl)-1-((S)-1,1,1-trifluoro-3-methoxypropan-2-yl)pyrrolidin-3-yl)-3-(3-((S)-2-hydroxypropoxy)-4-methyl-1-phenyl-1H-pyrazol-5-yl)urea]
< 100	COCCN1C[C@@H](NC(=O)Nc2c(C)c(C)nn2-c2ccccc2)[C@H](c2ccc(F)c(F)c2)C1 [Example 92, 1-((3S,4R)-4-(3,4-difluoro-phenyl)-1-(2-methoxyethyl)pyrrolidin-3-yl)-3-(3,4-dimethyl-1-phenyl-1H-pyrazol-5-yl)urea]
< 100	COCCN1C[C@@H](NC(=O)Nc2c(C)c(-c3cc(C)n(C)n3)nn2-c2ccccc2)[C@H](c2ccc(F)c(F)c2)C1 [Example 305, 1-((3S,4R)-4-(3,4-difluorophenyl)-1-(2-methoxyethyl)pyrrolidin-3-yl)-3-(1′,4,5′-trimethyl-1-phenyl-1H,1′H-[3,3′-bipyrazol]-5-yl)urea]
< 100	CCOc1nn(-c2ccccc2)c(NC(=O)N[C@@H]2CN(CCOC)C[C@H]2c2ccc(F)c(F)c2)c1CCO [Example 550, 1-((3S,4R)-4-(3,4-difluorophenyvl)-1-(2-methoxyethyl)pyrrolidin-3-yl)-3-(3-ethoxy-4-(2-hydroxyethyl)-1-phenyl-1H-pyrazol-5-yl)urea]
< 100	COCCN1C[C@@H](NC(=O)Nc2c(C)c(OCC(=O)N3CCOCC3)nn2-c2ccccc2)[C@H](c2ccc(F)c(F)c2)C1 [Example 552, 1-((3S,4R)-4-(3,4-difluorophenyvl)-1-(2-methoxyethyl)pyrrolidin-3-yl)-3-(4-methyl-3-(2-morpholino-2-oxoethoxy)-1-phenyl-1H-pyrazol-5-yl)urea]
< 100	COCCN1C[C@@H](NC(=O)Nc2c(C)c([C@H]3CCCN3C(C)=O)nn2-c2ccccc2)[C@H](c2ccc(F)c(F)c2)C1 [Example 596, 1-(3-((R)-1-acetylpyrrolidin-2-yl)-4-methyl-1-phenyl-1H-pyrazol-5-yl)-3-((3S,4R)-4-(3,4-difluorophenyl)-1-(2-methoxyethyl)pyrrolidin-3-yl)urea]
< 100	COCCN1C[C@@H](NC(=O)Nc2c(C)c([C@H]3CCCN3)nn2-c2ccccc2)[C@H](c2ccc(F)c(F)c2)C1 [Example 583, 1-((3S,4R)-4-(3,4-difluorophenyl)-1-(2-methoxyethyl)pyrrolidin-3-yl)-3-(4-methyl-1-phenyl-3-((R)-pyrrolidin-2-yl)-1H-pyrazol-5-yl)urea dihydrochloride]
< 100	COCCN1C[C@@H](NC(=O)Nc2c(C)c(-c3cnn(C)c3C)nn2-c2ccccc2)[C@H](c2ccc(F)c(F)c2)C1 [Example 507, 1-((3S,4R)-4-(3,4-difluorophenyl)-1-(2-methoxyethyl)pyrrolidin-3-yl)-3-(1′,4,5′-trimethyl-1-phenyl-1H,1′H-[3,4′-bipyrazol]-5-yl)urea]
100 to 1000	COCCN1C[C@@H](NC(=O)Nc2c(CO)c(COC)nn2-c2ccccc2)[C@H](c2ccc(F)c(F)c2)C1 [Example 160, 1-((3S,4R)-4-(3,4-difluorophenyl)-1-(2-methoxyethyl)pyrrolidin-3-yl)-3-(4-(hydroxymethyl)-3-(methoxymethyl)-1-phenyl-1H-pyrazol-5-yl)urea]
< 100	COCCN1C[C@@H](NC(=O)Nc2c(C)c(OC[C@@H](O)COC)nn2-c2ccccc2)[C@H](c2cc(F)c(F)c(F)c2)C1 [Example 564, 1-(3-((S)-2-hydroxy-3-methoxypropoxy)-4-methyl-1-phenyl-1H-pyrazol-5-yl)-3-((3S,4R)-1-(2-methoxyethyl)-4-(3,4,5-trifluorophenyl)pyrrolidin-3-yl)urea]
